# Source: article PMC11747885, “Potent inhibitors of the human RNA ligase Rlig1 highlights its role in RNA integrity maintenance under oxidative cellular stress” (Chemical Science, 2025)
# Where “and” joins values, the source holds several entries; their conditions need not be identical. Identical values can stand only once. Entries after “also recorded” stand apart in the source; their conditions may differ. Marks after values point to notes of the source that are not given here.
# Columns and labels:
# [1] = biological target: T1, Rlig1-AMP (Homo sapiens, UniProt Q8N999); experiment: Radioactive RNA ligation assay (hit validation, 10 µM test and IC50 determination); assay type: biochemical
# T1 construct: made in house; host or cells: E. coli BL21 (DE3), pET15b-Rlig1
# T1 sequence (Q8N999 whole entry): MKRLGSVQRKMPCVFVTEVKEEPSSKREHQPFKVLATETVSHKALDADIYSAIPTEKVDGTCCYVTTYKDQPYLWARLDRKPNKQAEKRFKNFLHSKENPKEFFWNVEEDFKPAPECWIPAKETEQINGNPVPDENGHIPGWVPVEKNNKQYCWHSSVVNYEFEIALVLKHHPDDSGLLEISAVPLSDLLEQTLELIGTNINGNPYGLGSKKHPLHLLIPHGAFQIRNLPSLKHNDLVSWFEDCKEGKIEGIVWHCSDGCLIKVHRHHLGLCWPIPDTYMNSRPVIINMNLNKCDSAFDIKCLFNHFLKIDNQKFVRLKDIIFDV
# [2] = in vitro; conditions: human
# [3] = system: HEK293 cells; experiment: Cell viability assay of HEK293 cells treated with inhibitors and menadione; assay type: cell-based, human; conditions: for Mean Diff, (Predicted (LS) mean diff,) w/o menadione - w menadione: 2 way ANOVA, Šídák's multiple comparisons test, normalised viability
# [4] = as above; assay type: cell-based, human; conditions: human, HEK293 cells, w/o Menadione; for viability at 7.5 µM: 7.5 µM compound; for viability at 15 µM: 15 µM compound; for viability at 30 µM: 30 µM compound; for viability at 60 µM: 60 µM compound
# [5] = system: HEK293 cells; experiment: Cell viability assay of HEK293 cells treated with inhibitors (CellTiter-Glo)
# [6] = log(inhibitor) vs. response, variable slope (four parameters)
# [7] = 20240508 plate 012, DMSO Ko no Mendione = 100
# [8] = 20240508 plate 013, DMSO Ko no Mendione = 100
# [9] = 20240515 plate 014, DMSO Ko no Mendione = 100
# [10] = 20240515 plate 015, DMSO Ko no Mendione = 100
smiles,measurement,setting,value
Nc1cc(Nc2ccc(NC(=O)c3ccc(Nc4ccnc5ccccc45)cc3)cc2)ccn1 [Compound 36],inhibition of Rlig1-AMP ligation (urea-PAGE),"[1]; 10 μM compound, 500 nM Rlig1-AMP, 20 min 37 °C",Ligation was inhibited; also recorded: fully inhibited
same,HillSlope (best-fit value),[1]; four-parameter fit,3.369
same,Span (best-fit value),[1]; four-parameter fit,96.63
same,IC50,"[1]; four-parameter fit, n = 3, read-out: IC50 (best-fit value)",3.86 µM
same,inhibition at 30 µM,"[1]; log Compound [µM] 1.47712, replicates I-III, read-out: percentage inhibition (dose response curve for IC50)",100%
same,inhibition at 0.9375 µM,"[1]; log Compound [µM] -0.0280287, replicates I-III, read-out: percentage inhibition (dose response curve for IC50)",5.58%
same,inhibition at 0.46875 µM,"[1]; log Compound [µM] -0.329059, replicates I-III, read-out: percentage inhibition (dose response curve for IC50)",2.58%
same,LogIC50 (best-fit value),"[1]; log of µM, four-parameter fit",0.5866
same,Bottom (best-fit value),[1]; [6],4.368
same,Top (best-fit value),[1]; [6],101
same,"viability at 24 h, 0.234375 µM",[2],106%
same,"viability at 24 h, 0.46875 µM",[2],99.9%
same,"viability at 24 h, 0.9375 µM",[2],104%
same,"viability at 24 h, 1.875 µM",[2],99.2%
same,"viability at 24 h, 3.75 µM",[2],93.6%
same,"viability at 24 h, 7.5 µM",[2],93.9%
same,"viability at 24 h, 15 µM",[2],86.8%
same,"viability at 24 h, 30 µM",[2],90.4%
same,"Mean Diff, (Predicted (LS) mean diff,) w/o menadione - w menadione",[3]; 7.5 µM compound,8.308
same,"Cell viability raw signal, technical replicates","[3]; 7.5 µM compound, w Menadione (40µM), 20240508 plate 012",27030 and 23198 and 28223 and 26549
same,"Cell viability raw signal, technical replicates","[3]; 7.5 µM compound, w Menadione (40µM), 20240508 plate 013",27603 and 23558 and 27792 and 26913
same,"Cell viability raw signal, technical replicates","[3]; 7.5 µM compound, w Menadione (40µM), 20240515 plate 014",28096 and 25755 and 28850 and 30838
same,"Cell viability raw signal, technical replicates","[3]; 7.5 µM compound, w Menadione (40µM), 20240515 plate 015",27895 and 33778 and 30188 and 31212
same,"Cell viability raw signal, technical replicates","[3]; 7.5 µM compound, w/o Menadione, 20240508 plate 012",385210 and 396370 and 371980 and 372320
same,"Cell viability raw signal, technical replicates","[3]; 7.5 µM compound, w/o Menadione, 20240508 plate 013",405510 and 393590 and 402690 and 387370
same,"Cell viability raw signal, technical replicates","[3]; 7.5 µM compound, w/o Menadione, 20240515 plate 014",380800 and 387250 and 402000 and 397370
same,"Cell viability raw signal, technical replicates","[3]; 7.5 µM compound, w/o Menadione, 20240515 plate 015",356280 and 367960 and 366010 and 366080
same,"Mean Diff, (Predicted (LS) mean diff,) w/o menadione - w menadione",[3]; 15 µM compound,17.8
same,"Cell viability raw signal, technical replicates","[3]; 15 µM compound, w Menadione (40µM), 20240508 plate 012",22111 and 21413 and 21368 and 22937
same,"Cell viability raw signal, technical replicates","[3]; 15 µM compound, w Menadione (40µM), 20240508 plate 013",69935* and 23670 and 27045 and 22274
same,"Cell viability raw signal, technical replicates","[3]; 15 µM compound, w Menadione (40µM), 20240515 plate 014",28312 and 27245 and 29168 and 29878
same,"Cell viability raw signal, technical replicates","[3]; 15 µM compound, w Menadione (40µM), 20240515 plate 015",27690 and 32043 and 28425 and 26586
same,"Mean Diff, (Predicted (LS) mean diff,) w/o menadione - w menadione",[3]; 30 µM compound,11.65
same,"Cell viability raw signal, technical replicates","[3]; 30 µM compound, w Menadione (40µM), 20240508 plate 012",24245 and 20350 and 24935 and 20723
same,"Cell viability raw signal, technical replicates","[3]; 30 µM compound, w Menadione (40µM), 20240508 plate 013",21997 and 20914 and 24666 and 21857
same,"Cell viability raw signal, technical replicates","[3]; 30 µM compound, w Menadione (40µM), 20240515 plate 014",26699 and 30187 and 27245 and 26622
same,"Cell viability raw signal, technical replicates","[3]; 30 µM compound, w Menadione (40µM), 20240515 plate 015",24014 and 26245 and 23994 and 40225
same,"Cell viability raw signal, technical replicates","[3]; 30 µM compound, w/o Menadione, 20240508 plate 012",348650 and 347840 and 366110 and 365510
same,"Mean Diff, (Predicted (LS) mean diff,) w/o menadione - w menadione",[3]; 60 µM compound,4.361
same,"Cell viability raw signal, technical replicates","[3]; 60 µM compound, w Menadione (40µM), 20240508 plate 012",158210* and 163010* and 19082* and 18545*
same,"Cell viability raw signal, technical replicates","[3]; 60 µM compound, w Menadione (40µM), 20240508 plate 013",166210* and 174600* and 20028* and 18681*
same,"Cell viability raw signal, technical replicates","[3]; 60 µM compound, w Menadione (40µM), 20240515 plate 014",33336 and 33031 and 28059 and 24828
same,"Cell viability raw signal, technical replicates","[3]; 60 µM compound, w Menadione (40µM), 20240515 plate 015",185100* and 184480* and 111650* and 66878*
same,"Cell viability raw signal, technical replicates","[3]; 60 µM compound, w/o Menadione, 20240508 plate 012",344220 and 331510 and 355900 and 344190
same,"Cell viability raw signal, technical replicates","[3]; 60 µM compound, w/o Menadione, 20240508 plate 013",348460 and 354210 and 355750 and 353860
same,"Cell viability raw signal, technical replicates","[3]; 60 µM compound, w/o Menadione, 20240515 plate 014",336500 and 373330 and 357790 and 375230
same,"Cell viability raw signal, technical replicates","[3]; 60 µM compound, w/o Menadione, 20240515 plate 015",321900 and 321160 and 330420 and 326560
same,viability at 7.5 µM,[4]; [7],91%
same,viability at 7.5 µM,[4]; [8],101%
same,viability at 7.5 µM,[4]; [9],96%
same,viability at 7.5 µM,[4]; [10],89%
same,viability at 15 µM,[4]; [7],98.9%
same,viability at 15 µM,[4]; [8],99.3%
same,viability at 15 µM,[4]; [9],94.8%
same,viability at 15 µM,[4]; [10],94.9%
same,viability at 30 µM,[4]; [7],85.2%
same,viability at 30 µM,[4]; [8],98.7%
same,viability at 30 µM,[4]; [9],89.7%
same,viability at 30 µM,[4]; [10],81.9%
same,viability at 60 µM,[4]; [7],82.1%
same,viability at 60 µM,[4]; [8],89.4%
same,viability at 60 µM,[4]; [9],88.4%
same,viability at 60 µM,[4]; [10],79.5%
same,cytotoxicity (in words),"[5]; HEK293, 24 h, up to 30 μM",no detectable cytotoxicity
same,IC50 (Figure 3D: EC50 values for plot; log(inhibitor) vs. response -- Variable slope (four parameters)),"[5]; HEK293 cell viability, fit per plate (3 plates, 4 technical replicates each), highest tested concentration 30 µM",2607.3 µM and 1652.85 µM and 299.495 µM
same,LogIC50 (log(inhibitor) vs. response -- Variable slope (four parameters)),"[5]; HEK293 cell viability, fit per plate (3 plates, 4 technical replicates each), log of [µM]",3.416 and 3.218 and 2.476
same,EC50,"[5]; Homo sapiens, HEK293, 24 h",> 30 µM
